Test results as given in patent US20220281848A1, “PYRAZOLE-SUBSTITUTED PYRROLIDINONES AS HERBICIDES” (FMC Corporation, priority 2019, published 2022).

Tested on: plants
Assay: Test D post-emergence, other plants of Tables D2 and D4
Type: in vivo
Conditions: for STEME damage rating (100=total damage to plant; 0=no damage to plant) / VERPE damage rating (100=total damage to plant; 0=no damage to plant): "Cereals" Postemergent, evaluated after 15 d; for damage to plant (100=total damage to plant; 0=no damage to plant), ABUTH / damage to plant (100=total damage to plant; 0=no damage to plant), AMARE / damage to plant (100=total damage to plant; 0=no damage to plant), BIDPI / damage to plant (100=total damage to plant; 0=no damage to plant), BRAPL / damage to plant (100=total damage to plant; 0=no damage to plant), CYPES / damage to plant (100=total damage to plant; 0=no damage to plant), DIGSA / damage to plant (100=total damage to plant; 0=no damage to plant), ECHCG / damage to plant (100=total damage to plant; 0=no damage to plant), ELEIN / damage to plant (100=total damage to plant; 0=no damage to plant), EPHHL / damage to plant (100=total damage to plant; 0=no damage to plant), GLXMA / damage to plant (100=total damage to plant; 0=no damage to plant), IPOHE / damage to plant (100=total damage to plant; 0=no damage to plant), ORYSA / damage to plant (100=total damage to plant; 0=no damage to plant), PANMI / damage to plant (100=total damage to plant; 0=no damage to plant), SETFA / damage to plant (100=total damage to plant; 0=no damage to plant), SORVU: post-emergence
Method in brief: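 Damage was rated visually from 0 (none) to 100 (total), at 20 DAA for pre-emergence and 15 d for post-emergence. Plants grew from safener-treated seed in a glasshouse at 24/18° C. or 20/16° C. day/night, 65% humidity, watered twice daily.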

## COc1c(F)cccc1NC(=O)C1C(=O)N(C)CC1c1cc(C(F)(F)F)n(C)n1 (racemic) [Compound 18]
Rates 250
  STEME damage rating (100=total damage to plant; 0=no damage to plant): 0
  VERPE damage rating (100=total damage to plant; 0=no damage to plant): 0
Rates 500
  STEME damage rating (100=total damage to plant; 0=no damage to plant): 20
  VERPE damage rating (100=total damage to plant; 0=no damage to plant): 40
Rates 130
  VERPE damage rating (100=total damage to plant; 0=no damage to plant): 0
Rate 130, evaluated after 15 d
  damage to plant (100=total damage to plant; 0=no damage to plant), ABUTH: 0
  damage to plant (100=total damage to plant; 0=no damage to plant), AMARE: 0
  damage to plant (100=total damage to plant; 0=no damage to plant), BIDPI: 0
  damage to plant (100=total damage to plant; 0=no damage to plant), BRAPL: 60
  damage to plant (100=total damage to plant; 0=no damage to plant), CYPES: 0
  damage to plant (100=total damage to plant; 0=no damage to plant), DIGSA: 30
  damage to plant (100=total damage to plant; 0=no damage to plant), ECHCG: 0
  damage to plant (100=total damage to plant; 0=no damage to plant), ELEIN: 0
  damage to plant (100=total damage to plant; 0=no damage to plant), EPHHL: 0
  damage to plant (100=total damage to plant; 0=no damage to plant), GLXMA: 0
  damage to plant (100=total damage to plant; 0=no damage to plant), IPOHE: 0
  damage to plant (100=total damage to plant; 0=no damage to plant), ORYSA: 0
  damage to plant (100=total damage to plant; 0=no damage to plant), PANMI: 0
  damage to plant (100=total damage to plant; 0=no damage to plant), SETFA: 0
  damage to plant (100=total damage to plant; 0=no damage to plant), SORVU: 0
Rate 250, evaluated after 15 d
  damage to plant (100=total damage to plant; 0=no damage to plant), ABUTH: 0
  damage to plant (100=total damage to plant; 0=no damage to plant), AMARE: 10
  damage to plant (100=total damage to plant; 0=no damage to plant), BIDPI: 0
  damage to plant (100=total damage to plant; 0=no damage to plant), BRAPL: 70
  damage to plant (100=total damage to plant; 0=no damage to plant), CYPES: 0
  damage to plant (100=total damage to plant; 0=no damage to plant), DIGSA: 60
  damage to plant (100=total damage to plant; 0=no damage to plant), ECHCG: 60
  damage to plant (100=total damage to plant; 0=no damage to plant), ELEIN: 0
  damage to plant (100=total damage to plant; 0=no damage to plant), EPHHL: 10
  damage to plant (100=total damage to plant; 0=no damage to plant), GLXMA: 0
  damage to plant (100=total damage to plant; 0=no damage to plant), IPOHE: 20
  damage to plant (100=total damage to plant; 0=no damage to plant), ORYSA: 0
  damage to plant (100=total damage to plant; 0=no damage to plant), PANMI: 10
  damage to plant (100=total damage to plant; 0=no damage to plant), SETFA: 30
  damage to plant (100=total damage to plant; 0=no damage to plant), SORVU: 0
Rate 500, evaluated after 15 d
  damage to plant (100=total damage to plant; 0=no damage to plant), ABUTH: 30
  damage to plant (100=total damage to plant; 0=no damage to plant), AMARE: 20
  damage to plant (100=total damage to plant; 0=no damage to plant), BIDPI: 20
  damage to plant (100=total damage to plant; 0=no damage to plant), BRAPL: 80
  damage to plant (100=total damage to plant; 0=no damage to plant), CYPES: 0
  damage to plant (100=total damage to plant; 0=no damage to plant), DIGSA: 70
  damage to plant (100=total damage to plant; 0=no damage to plant), ECHCG: 70
  damage to plant (100=total damage to plant; 0=no damage to plant), ELEIN: 0
  damage to plant (100=total damage to plant; 0=no damage to plant), EPHHL: 20
  damage to plant (100=total damage to plant; 0=no damage to plant), GLXMA: 0
  damage to plant (100=total damage to plant; 0=no damage to plant), IPOHE: 30
  damage to plant (100=total damage to plant; 0=no damage to plant), ORYSA: 0
  damage to plant (100=total damage to plant; 0=no damage to plant), PANMI: 10
  damage to plant (100=total damage to plant; 0=no damage to plant), SETFA: 70
  damage to plant (100=total damage to plant; 0=no damage to plant), SORVU: 0
